# According to patent publication US6815205B2, “Auxinic analogues of indole-3-acetic acid” (Invitrogen Corporation, priority 1995, dated 2004):
# “Also recorded” adds a separate entry of the source.
# How the values were obtained:
# [1] = disclosed in copending U.S. application Ser. No. 08/430,209; cited from earlier work
# [2] = test system: Arabidopsis thaliana
# Protocol: Seeds of Arabidopsis thaliana ecotypes Columbia and Landersberg ereta are provided by Dr. Keith Davis (The Ohio State University, Columbus). Tissues of hypocotyl are removed from 10-day-old seedlings, transferred to MS complete medium containing (1) different concentrations of IAA or IAA analogue with different concentrations of N^6.(Δ2Isopentenyl) adenine (2iP) and (2) different concentrations of IAA analogue with different concentrations of 2iP, BAP, or kinetin. The explants are incubated at 23° C. using an 18 h light/6 h dark cycle until the formation of green calli and shoots.
# [3] = test system: transformed tobacco; test: Regeneration of Agrobacterium-mediated transformed tobacco tissue under kanamycin selection; assay type: cell-based; details: in the presence of BAP; 100 mg/l kanamycin
# Protocol: (§1) These IAA analogues were further evaluated for their abilities to effect the regeneration of plant tissues comprising foreign DNA. Tobacco and potato tissues were subjected to Agrobacterium-mediated transformation techniques, including cocultivation with Agrobacterium containing pBI121 and selecting with MS complete medium containing 0.5 mg/l BAP, 2 mg/l IAA derivative and 100 mg/l kanomycin.
# (§2) Agrobacterium-mediated plant transformation was performed as described by Lin et al. (1994) Focus 16:72-77. For example:
# In tobacco, the leaf discs were incubated with 10^9 cells/ml of Agrobacterium tumefaciens LBA4404 cells containing pBI121 in MS complete medium with 0.5 mg/l MES for 10 minutes, transferred to solid MS complete medium, and incubated for two days at 25° C., using an 18 hour light/6 hour dark cycle for cocultivation. After cocultivation, the explants were transferred to the MS medium containing a different ratio of BAP/IAA or BAP/IAA analogue, 100 mg/l kanamycin and 500 mg/l carbenicillin and incubated at 25° C. using an 18 hour light/6 hour dark cycle for shoot formation.
# [4] = test system: transformed potato; test: Regeneration of Agrobacterium-mediated transformed potato tissue under kanamycin selection; assay type: cell-based; parameters: key to Potato Callus (regeneration of transformed tissue): +(−) means preliminary observation; details: 100 mg/l kanamycin; for regeneration of kanamycin resistant calli in transformed potato: in the presence of BAP; for Potato Callus (regeneration of transformed tissue): BAP 0.5 mg/l, 2 mg/l IAA derivative, Agrobacterium pBI121
# Protocol: as §1
# Plant transformation in potato stems is carried out as described above in section (a) for tobacco.
# as §2
# In another example, potato leaf discs were transformed with the Agrobacterium-mediation technique as described above for tobacco. The potato explants were then subjected to incubation with IAA analogues in the absence and presence of cytokinin to screen for auxinic activities.
# [5] = test system: tobacco leaf discs; test: Regeneration of roots or calli from tobacco leaf explants, MS complete medium with auxin only; assay type: cell-based, Nicotiana tobaccum Xanthi; parameters: key to Tobacco Callus (regeneration): +(−) means preliminary observation; details: for Tobacco Callus (regeneration): Auxins 2 mg/l, no cytokinin, MS complete medium
# Protocol: (§3) In particular embodiments of the invention, various IAA analogues were screened for auxinic activity by incubating different plant tissues, e.g., tobacco and tomato leaf discs and potato stems in (a) MS complete medium (obtained from Life Technologies, Inc., Gaithersburg, Md.) containing different concentrations of auxin only and (2) the MS complete auxin medium containing different ratios of cytokinin/auxin.
# (§4) In another embodiment of the invention, IAA analogues were screened for auxinic activity. […] Table 1 documents the ability of the different IAA analogues to stimulate the regeneration of roots or calli from tobacco, tomato and potato. In general, IAA analogues having a bromine substitution at the 2
# Seeds of Nicotiana tobaccum Xanthi are provided by Dr. James Saunders (USDA, Beltsville, Md.). Young tobacco leaves are removed and cut into small pieces.
# The regeneration of plant tissues using tissue culture depends on plant hormones such as auxin and cytokinin. It is known that the presence of an auxin in plant tissue cultured on Murashige and Skoog (MS) medium (Murashige, T. and F. Skoog (1962) Physiol. Plant 15:473-497) stimulates the formation of root structure whereas the formation of callus is observed when not only the auxin but also a cytokinin complement the MS nutrient medium. Therefore, evaluation of a test compound as a potential new auxin is performed by incubating tobacco leaf discs in (a) the MS complete medium containing different concentrations of auxin only and (b) the MS complete medium containing different ratios of cytokinin to auxin concentrations (cytokinin/auxin).
# (§5) Young tobacco leaves, potato stems, tomato leaves and cassava leaves and stems from one-month-old plants were removed and cut into small pieces. The explants were incubated on (1) the MS complete medium containing different concentrations of auxin related compounds only (2) the MS complete medium containing different concentrations of auxin-related compounds and 0.5 mg/l benzylaminopurine (BAP) using an 18 hour light/6 hour dark cycle until the formation of green calli, shoots or roots.
# [6] = test system: Cassava leaves and stems; test: Regeneration of shoots or calli from cassava leaves and stems with auxin in the presence of BAP; assay type: cell-based; details: 2 mg/l with 0.5 mg/l BAP, MS complete medium
# Protocol: Further, examples of IAA analogues of the invention were evaluated for auxinic activity in the presence of a cytokinin.
# In another embodiment of the invention, IAA analogues of the present invention were applied to the regeneration of plant tissues known in the art to be difficult to regenerate, such as cassava, woody plants, and monocotyledonous crops [Vasil and Vasil (1994) in Plant Cell and Tissue Culture (Vasil and Thorpe, eds.), Kluwer Academic Publishers, Dordrech, Netherlands; Chee (1995) Plant Cell Reports 14:753-757; Bums and Schwartz (1996) Plant Cell Reports 15:405-408; Mihaljevic et al. (1996) Plant Cell Reports 15:610-614; Schopke et al. (1996) Nature Biotechnology 14:731].
# Stems or third young leaves were removed from the one month old Cassava plants and cut into small pieces. The explants were incubated on MS complete medium containing different concentrations of auxin related compounds and 0.5 mg/l benzylaminopurine (BAP).
# (§6) Young tobacco leaves, potato stems, tomato leaves and cassava leaves and stems from one-month-old plants were removed and cut into small pieces. […]
# [7] = test system: tobacco leaf discs; test: Regeneration of shoots or calli from tobacco leaf explants, auxin together with cytokinin (BAP); assay type: cell-based, Nicotiana tobaccum Xanthi; parameters: key to Tobacco Callus (regeneration): +(−) means preliminary observation
# Protocol: In particular embodiments of the invention, various IAA analogues were screened for auxinic activity by incubating different plant tissues, e.g., tobacco and tomato leaf discs and potato stems in (a) MS complete medium (obtained from Life Technologies, Inc., Gaithersburg, Md.) containing different concentrations of auxin only and (2) the MS complete auxin medium containing different ratios of cytokinin/auxin. These IAA derivatives were further evaluated for auxinic activity in the presence of a cytokinin. […] Incubation of plant tissues Seeds of Nicotiana tobaccum Xanthi are provided by Dr. James Saunders (USDA, Beltsville, Md.). Young tobacco leaves are removed and cut into small pieces. […] The regeneration of plant tissues using tissue culture depends on plant hormones such as auxin and cytokinin. It is known that the presence of an auxin in plant tissue cultured on Murashige and Skoog (MS) medium (Murashige, T. and F. Skoog (1962) Physiol. Plant 15:473-497) stimulates the formation of root structure whereas the formation of callus is observed when not only the auxin but also a cytokinin complement the MS nutrient medium. […]
# [8] = test system: potato stems; test: Regeneration of shoots or calli from potato stem explants, auxin together with cytokinin (BAP); assay type: cell-based; parameters: key to Potato Callus (regeneration): +(−) means preliminary observation
# Protocol: In particular embodiments of the invention, various IAA analogues were screened for auxinic activity by incubating different plant tissues, e.g., tobacco and tomato leaf discs and potato stems in (a) MS complete medium (obtained from Life Technologies, Inc., Gaithersburg, Md.) containing different concentrations of auxin only and (2) the MS complete auxin medium containing different ratios of cytokinin/auxin. These IAA derivatives were further evaluated for auxinic activity in the presence of a cytokinin. […] Incubation of plant tissues Potato seeds of variety “Kent V. F.” are provided by Dr. James Saunders (USDA, Beltsville, Md.). Young potato stems are removed and cut into small pieces. Explants are incubated in MS complete medium with auxin in the presence or absence of cytokinin as described in section (a) above for tobacco. Young tobacco leaves, potato stems, tomato leaves and cassava leaves and stems from one-month-old plants were removed and cut into small pieces. The explants were incubated on (1) the MS complete medium containing different concentrations of auxin related compounds only (2) the MS complete medium containing different concentrations of auxin-related compounds and 0.5 mg/l benzylaminopurine (BAP) using an 18 hour light/6 hour dark cycle until the formation of green calli, shoots or roots.
# [9] = test system: potato stems; test: Regeneration of roots or calli from potato stem explants, MS complete medium with auxin only; assay type: cell-based; parameters: key to Potato Roots (regeneration): +(−) means preliminary observation; details: for root formation in potato stems: absence of BAP
# Protocol: as §3, §4
# Potato seeds of variety “Kent V. F.” are provided by Dr. James Saunders (USDA, Beltsville, Md.). Young potato stems are removed and cut into small pieces. Explants are incubated in MS complete medium with auxin in the presence or absence of cytokinin as described in section (a) above for tobacco.
# as §5
# [10] = test system: tomato leaf discs; test: Regeneration of shoots or calli from tomato leaf explants, auxin together with cytokinin (BAP); assay type: cell-based; details: 0.5, 2.0 or 8.0 with 0.5 mg/l BAP
# Protocol: In particular embodiments of the invention, various IAA analogues were screened for auxinic activity by incubating different plant tissues, e.g., tobacco and tomato leaf discs and potato stems in (a) MS complete medium (obtained from Life Technologies, Inc., Gaithersburg, Md.) containing different concentrations of auxin only and (2) the MS complete auxin medium containing different ratios of cytokinin/auxin. These IAA derivatives were further evaluated for auxinic activity in the presence of a cytokinin. […] Incubation of plant tissues Tomato seeds of variety “Moneymaker” are provided by Dr. James Saunders (USDA, Beltsville, Md.). Young tomato leaves are removed and cut into small pieces. Explants are incubated in MS complete medium with auxin in the presence or absence of cytokinin as described in section (a) above for tobacco. Young tobacco leaves, potato stems, tomato leaves and cassava leaves and stems from one-month-old plants were removed and cut into small pieces. The explants were incubated on (1) the MS complete medium containing different concentrations of auxin related compounds only (2) the MS complete medium containing different concentrations of auxin-related compounds and 0.5 mg/l benzylaminopurine (BAP) using an 18 hour light/6 hour dark cycle until the formation of green calli, shoots or roots.
# [11] = test system: tomato leaf discs; test: Regeneration of roots or calli from tomato leaf explants, MS complete medium with auxin only; assay type: cell-based; details: 0.5, 2.0 and 8.0 mg/l, absence of BAP
# Protocol: as §3, §4
# Tomato seeds of variety “Moneymaker” are provided by Dr. James Saunders (USDA, Beltsville, Md.). Young tomato leaves are removed and cut into small pieces. Explants are incubated in MS complete medium with auxin in the presence or absence of cytokinin as described in section (a) above for tobacco.
# as §6
Compound,regeneration of kanamycin resistant calli and shoots in transformed tobacco [3],regeneration of kanamycin resistant calli in transformed potato [4],Potato Callus (regeneration of transformed tissue) [4],further results
5-bromo-IAA,–,–,–,"callus and shoot formation in combination with cytokinin [1]: both callus and shoot formation are observed; effectiveness in stimulating the regeneration of green calli, relative to IAA [2]: between two and four times more effective than IAA"
"O=C(O)Cc1c[nH]c2ccc(Cl)cc12 [5-ClIAA, 5-chloroindole-3-acetic acid]",stimulated,stimulated,–,–
"CCc1ccc2[nH]cc(CC(=O)O)c2c1 [5-EtIAA, 5-ethylindole-3-acetic acid]",stimulated,stimulated,–,Tobacco Callus (regeneration) [5]: +(−)
"O=C(O)Cc1c[nH]c2ccc(F)cc12 [5-FIAA, 5-fluoroindole-3-acetic acid]",stimulated,stimulated,–,shoot formation in cassava stems and leaves [6]: promoted the formation of shoots in cassava stems and to a greater extent from cassava leaves; also recorded: regeneration of shoots
"O=C(O)Cc1c[nH]c2ccc(I)cc12 [5-IIAA, 5-iodoindole-3-acetic acid]",–,–,–,"Tobacco Callus (regeneration) [5]: +(−); Tobacco Callus (regeneration) ([7]; BAP 0.5 mg/l + Auxins 2 mg/l): +(−); Potato Callus (regeneration) ([8]; BAP 0.5 mg/l + Auxins 2 mg/l): +(−); Potato Roots (regeneration) ([9]; Auxins 2 mg/l, no cytokinin, MS complete medium): +(−)"
"COc1ccc2[nH]cc(CC(=O)O)c2c1 [5-MeoIAA, 5-methoxyindole-3-acetic acid]",stimulated,stimulated,–,–
"O=C(O)Cc1c[nH]c2cc(Br)ccc12 [6-BrIAA, 6-bromoindole-3-acetic acid]",–,–,–,"growth response of tobacco leaf discs ([5]; different concentrations, absence of BAP): both the formation of roots and the formation of calli were observed; growth response of tobacco leaf discs ([7]; different concentrations, presence of BAP): the formation of both shoots and calli occurred; growth response of potato stems ([8]; 0.5, 2.0, 8.0 mg/l with BAP 0.5 mg/l): callus formation was observed at all ratios of cytokinin/auxin; root formation in potato stems [9]: root formation was diminished; root formation in potato stems ([9]; concentration increased from 0.5 to 2.0 mg/l): root formation increased; growth response of tomato leaf discs [10]: calli, not roots, were formed; growth response of tomato leaf discs [11]: only root formation was observed"
"O=C(O)Cc1c[nH]c2c(Br)cccc12 [7-BrIAA, 7-bromoindole-3-acetic acid]",stimulated,stimulated,+(−),–
"CCc1cccc2c(CC(=O)O)c[nH]c12 [7-EtIAA, 7-ethylindole-3-acetic acid]",stimulated,stimulated,+(−),–
"O=C(O)Cc1c[nH]c2c(F)cccc12 [7-FIAA, 7-fluoroindole-3-acetic acid]",stimulated,stimulated,+(−),–
